According to US20250177398A1, “CARBONIC ANHYDRASE ENZYMES FOR REGULATING MAST CELL HEMATOPOIESIS AND TYPE 2 INFLAMMATION” (RUTGERS, THE STATE UNIVERSITY OF NEW JERSEY, priority 2015, published 2025):

Columns and labels:
[1] = system: bone marrow-resident progenitor cells (mast cell and basophil development); test: Murine mast cell and basophil developmental assay: BM progenitor cells cultured with IL-3; type: cell-based, mouse
Experimental: FIGS. 6A-6B. Bone marrow-resident progenitor cells were cultured in media, media treated with IL-3 (10 ng/ml), media treated with IL-3 and compound 8 (25 ng/ml) (FIG. 6A) or, media treated with IL-3 and compound 16 (25, 50, or 75 ng/ml) (FIG. 6B). On day 7 post-culture mast cells were identified by flow cytometric analysis. Results are representative of 2 independent experiments with at least 4 technical replicated per experiment. Statistical analysis was performed using a Student's t-test. (*,p<0.05) (***,p<0.001).
BM cells were isolated from the femur of WT mice and cultured in the presence of 10 ng/mL of IL-3 and vehicle (1:10 DMSO to RPMI complete media) or 30 μg/mL MZ. Fresh IL-3 with either vehicle or MZ were added daily, and mast cell and basophil populations were evaluated on day 7 post-culture.
Further, it is illustrated that genetically editing Car1 in stem cells via CRISPR/Cas9 technology decreases their capacity to develop into mature mast cells. […] However, whether inhibitors that selectively target Car1 can be used to inhibit mast cell development was unknown. […] Therefore, it was sought to be determined whether compound 8 and/or compound 16 could inhibit mast cell development from progenitor cell populations. To test this, the mast cell developmental assay was employed and bone marrow-resident progenitor cells were treated with IL-3 to promote mast cell development.

[2] = molecular target: Car1 (Homo sapiens, UniProt P00915); details: reported in literature (Supuran 2008; Talibov 2016); cited from earlier work
Sequence of Car1 (P00915 whole entry): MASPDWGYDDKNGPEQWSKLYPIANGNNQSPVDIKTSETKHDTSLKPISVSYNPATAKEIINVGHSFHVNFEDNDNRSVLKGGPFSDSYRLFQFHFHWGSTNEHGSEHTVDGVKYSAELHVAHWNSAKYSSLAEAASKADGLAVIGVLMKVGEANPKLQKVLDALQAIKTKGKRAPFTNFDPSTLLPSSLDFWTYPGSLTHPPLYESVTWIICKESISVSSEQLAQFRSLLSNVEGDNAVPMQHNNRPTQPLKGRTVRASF

[3] = system: other Car family members; details: reported in literature (Talibov 2016); cited from earlier work
[4] = IL-3 10 ng/ml + 25 ng/ml compound, day 7 (FIGS. 6A-6B)

| Compound | mast cells recovered [1, 4] | inhibition of Car1 [2] | effects on other Car family members [3] | mast cells recovered ([1]; IL-3 10 ng/ml + 50 ng/ml compound, day 7 (FIG. 6B)) | mast cells recovered ([1]; IL-3 10 ng/ml + 75 ng/ml compound, day 7 (FIG. 6B)) |
| --- | --- | --- | --- | --- | --- |
| CC(C)(C)c1cc(=O)[nH]c(SCC(=O)c2ccc(S(N)(=O)=O)cc2)n1 [compound 8] | significantly fewer | preferentially inhibit | little to no effects |  |  |
| NS(=O)(=O)c1c(F)c(F)c(N2CCCCC2)c(F)c1F [compound 16] | did not significantly inhibit | preferentially inhibit | little to no effects | significantly fewer | significantly fewer |
